Test results from patent US20070087029A1, “Localized delivery to the lymphatic system” (priority 2005, published 2007).

Columns and labels:
[1] = Chronic delivery: continuous infusion of dye(s) by Alzet miniosmotic pump for fourteen days, drainage to lymph nodes (photographs, OPD substrate development, histology); format: in vivo, rat; details: 14 days, open ended catheter, tip became occluded
Text: (§1) Animals. Male Lewis Inbred rats, six to eight weeks of age, were obtained from Charles River Laboratories and were acclimatized for five days before use. Animals were anesthetized with sodium pentobarbital before implants and dye injections.
(§2) Dyes. Isosulfan blue, india ink, and goat anti rabbit horse radish peroxidase (HRP) were used.
Chronic delivery. Alzet® miniosmotic pumps with a delivery rate of 0.25 or 0.5 microliter/hour (μl/hr) were used to continuously infuse dye(s) for fourteen days. The animals were sacrificed and a gross visual examination of the internal organs was performed to identify dye drainage into internal organs. Lymph nodes were collected, photographed, and analyzed as described in Table 1, below.

[2] = Acute delivery: injection of tracking dye subcutaneously and above the IP wall, dye diffusion and gross visual examination of internal organs; format: in vivo, rat
Experimental: as §1, §2
Acute delivery. 40 microliters (μl) of isosulfan blue was injected subcutaneously and above the IP wall. The location of the injection was varied to detect the site which would drain into the para-aortic lymph nodes. Dye diffusion was monitored at five minutes and thirty minutes. The animals were then sacrificed and a gross visual examination of the internal organs was performed to identify dye drainage into internal organs.

- dye in lymph nodes after chronic delivery [1]: not observed
- dye diffusion after subcutaneous injection ([2]; 40 μl, subcutaneous injection, 30 minutes): Minimal diffusion
- staining of internal organs after subcutaneous injection ([2]; injection site 1 cm above the hip joint, covered inguinal and popliteal beds): no internal organs being stained
- dye diffusion after injection into the peritoneal wall ([2]; peritoneal wall, one centimeter above the hip joint): minimal diffusion
- staining of internal organs after peritoneal wall injection ([2]; peritoneal wall, one centimeter above the hip joint, covered inguinal and popliteal beds): no internal organs being stained
Compound: CCN(CC)c1ccc(C(=C2C=CC(=[N+](CC)CC)C=C2)c2cc(S(=O)(=O)[O-])ccc2S(=O)(=O)[O-])cc1.[Na+] [isosulfan blue, Isosulfan blue]
